Data: patent publication US11155539B2, “4-pyridinylmethyl-morpholine derivatives and the use thereof as medicament” (Boehringer Ingelheim International GmbH, priority 2018, dated 2021)

Key:
NMDA NR1/NR2B receptor [1] = molecular target: T1, NMDA NR1/NR2B receptor (Homo sapiens, UniProt Q05586+Q13224); assay: In vitro NMDA NR1/NR2B cell assay (FLIPR, intracellular calcium induced by glycine/glutamate); assay type: cell-based; settings: HEK293 cells expressing NMDA NR1/NR2B; 20 μM glycine, 1 μM glutamate; read-out: IC50 (in vitro NR2B affinity, FLIPR assay)
T1 construct: host or cells: HEK293, tetracycline-inducible expression
T1 sequence (Q13224 27-1484, other chains not shown): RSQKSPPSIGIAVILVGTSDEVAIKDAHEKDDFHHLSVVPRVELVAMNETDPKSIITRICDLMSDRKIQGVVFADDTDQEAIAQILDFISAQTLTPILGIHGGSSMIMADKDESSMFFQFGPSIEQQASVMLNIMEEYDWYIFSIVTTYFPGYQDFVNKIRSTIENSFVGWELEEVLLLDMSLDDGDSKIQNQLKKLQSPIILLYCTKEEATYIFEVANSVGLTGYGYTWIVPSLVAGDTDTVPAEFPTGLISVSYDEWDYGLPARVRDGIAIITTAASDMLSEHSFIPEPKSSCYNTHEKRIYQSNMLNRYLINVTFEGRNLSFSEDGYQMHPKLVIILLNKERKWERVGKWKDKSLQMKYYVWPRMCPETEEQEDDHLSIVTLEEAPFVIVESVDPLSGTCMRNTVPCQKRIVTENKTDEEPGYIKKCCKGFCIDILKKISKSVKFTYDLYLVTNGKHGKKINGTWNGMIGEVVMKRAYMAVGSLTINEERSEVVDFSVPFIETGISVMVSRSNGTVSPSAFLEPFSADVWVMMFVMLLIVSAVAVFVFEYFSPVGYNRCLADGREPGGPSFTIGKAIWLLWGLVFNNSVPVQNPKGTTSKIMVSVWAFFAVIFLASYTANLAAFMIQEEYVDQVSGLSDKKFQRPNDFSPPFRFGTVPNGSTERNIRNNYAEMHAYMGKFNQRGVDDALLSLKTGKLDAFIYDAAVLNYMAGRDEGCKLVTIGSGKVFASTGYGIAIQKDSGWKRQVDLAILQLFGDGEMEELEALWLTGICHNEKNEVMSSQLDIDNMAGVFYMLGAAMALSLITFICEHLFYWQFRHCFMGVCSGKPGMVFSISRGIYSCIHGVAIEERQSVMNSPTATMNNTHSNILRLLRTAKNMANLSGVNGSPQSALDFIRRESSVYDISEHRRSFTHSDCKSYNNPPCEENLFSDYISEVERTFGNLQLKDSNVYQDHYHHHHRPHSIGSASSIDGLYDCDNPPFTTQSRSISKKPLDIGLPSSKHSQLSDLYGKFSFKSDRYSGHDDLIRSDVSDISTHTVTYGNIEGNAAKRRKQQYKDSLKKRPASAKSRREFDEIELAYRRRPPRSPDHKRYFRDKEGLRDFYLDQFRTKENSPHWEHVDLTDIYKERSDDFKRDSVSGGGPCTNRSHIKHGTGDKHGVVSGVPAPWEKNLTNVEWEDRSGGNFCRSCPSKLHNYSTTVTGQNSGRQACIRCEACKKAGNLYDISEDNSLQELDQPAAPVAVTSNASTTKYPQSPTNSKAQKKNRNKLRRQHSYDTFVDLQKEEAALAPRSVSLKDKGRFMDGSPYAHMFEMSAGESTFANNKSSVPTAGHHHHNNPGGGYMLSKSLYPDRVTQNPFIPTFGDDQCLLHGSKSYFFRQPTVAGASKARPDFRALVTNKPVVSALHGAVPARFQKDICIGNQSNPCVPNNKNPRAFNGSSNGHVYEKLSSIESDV
Method: (§1) A human HEK293 cell line with tetracyclin-inducible expression of NMDA NR1/NR2B receptor was used as a test system for compound efficacy and potency. The cell line was purchased from ChanTest, Catalog #CT6121. Compound activity was determined by measuring the effect of compounds on intracellular calcium concentration induced by glycine/glutamate agonism in a FLIPRtetra system (Molecular Devices).
(§2) The cells were obtained as frozen cells in cryo-vials and stored until use at −150° C. Cells were grown in culture medium (DMEM/F12, 10% FBS, 5 μg/mL Blasticidin, 150 μg/mL Zeozin, 500 μg/mL Geneticin). […] For sub-culturing the cells were detached from flasks by Versene. For the assay, cells were detached, washed twice with induction medium (DMEM/F12 without glutamine, 10% FBS, 2 μg/mL Tetracycline, 2 mM Ketamine) and seeded to 384 well pure coat amine plates (Becton Dickinson, 50000 cells per well in 50 μl) 48 h prior to assay in induction medium.
(§3) The test compounds were dissolved in 100% DMSO at a concentration of 10 mM and in a first step diluted in DMSO to a concentration of 5 mM, followed by serial dilution steps in 100% DMSO. Dilution factor and number of dilution steps may vary according to needs. Typically 8 different concentrations by 1:5 dilutions were prepared in duplicate, further intermediate dilutions (1:37.5) of the substances were carried out with aqueous assay buffer (137 mM NaCl, 4 mM KCl, 1.8 mM CaCl2, 10 mM HEPES, 10 mM Glucose, pH 7.4) resulting in a compound concentration 3 times above the final test concentration and DMSO at 2.7% resulting in 0.9% final DMSO concentration in the assay.
(§4) At the assay day cells were washed 3× with assay buffer (as described above), 10 μL buffer remained in the wells after washing. 10 μL Ca kit loading buffer (AAT Bioquest; prepared from the kit containing the following components: Component A: Fluo-8 NW dissolved in 200 μL DMSO and 20 μl of this solution are mixed with 10 ml buffer prepared out of component B and C, Component B: 10× Pluronic® F127 Plus diluted 1:10 in component C, Component C: HHBS (Hanks with 20 mM Hepes) was added to the cells and the plates were incubated with lid for 60 minutes at room temperature. 20 μl assay buffer containing 60 μM glycine (20 μM final) and 3 μM glutamate (1 μM final) was added to column 1-23, column 24 got assay buffer without glycine/glutamate to serve as negative unstimulated control. Fluorescence (indicating the calcium influx as a result of the NR1/NR2B ion channel activation) was read on the FLIPRtetra device for 60 seconds to monitor the glutamate induced effects. After 2 minutes 20 μL of compound dilution prepared as described above or controls (row 1-22) in assay buffer were carefully added to the wells. […] The average of 2 measurements at 5 minutes and […] 10 seconds after compound addition is calculated and further used for IC50 calculations. Each assay microtiter compound dilution plate contained wells (in column 23 or 24) with DMSO controls instead of compound as controls for glycine/glutamate induced fluorescence (high controls) and wells with 1 μM of a reference NR2B NAM as low controls (Compound 22; reference: Layton, Mark E et al, ACS Chemical Neuroscience 2011, 2(7), 352-362).
(§5) The output file of the reader contains the well number and measured average fluorescence units. For data evaluation and calculation, the measurement of the low control was set as 0% control and the measurement of the high control was set as 100% control. The IC50 values were calculated using the standard 4 parameter logistic regression formula. Calculation: [y=(a−d)/(1+(x/c)^b)+d], a=low value, d=high value; x=conc M; c=IC50 M; b=slope.

[2] = Metabolic stability in pooled human liver microsomes; assay type: in vitro ADME; settings: pH 7.6, 1 μM compound, 37° C., NADPH, read-out: Half-life - t½ human liver microsomes
Excerpt: Stability in human liver microsomes refers to the susceptibility of compounds to biotransformation in the context of selecting and/or designing drugs with favorable pharmacokinetic properties. The primary site of metabolism for many drugs is the liver. Human liver microsomes contain the cytochrome P450s (CYPs), and thus represent a model system for studying drug metabolism in vitro Enhanced stability in human liver microsomes is associated with several advantages, including increased bioavailability and adequate half-life, which can enable lower and less frequent dosing of patients. Thus, enhanced stability in human liver microsomes is a favorable characteristic for compounds that are to be used for drugs.
The metabolic degradation of the test compound was assayed at 37° C. with pooled human liver microsomes. The final incubation volume of 60 μl per time point contains TRIS buffer pH 7.6 at room temperature (0.1 M), magnesium chloride (5 mM aqueous solution), microsomal protein (1 mg/mL for human) and the test compound at a final concentration of 1 μM. Following a short preincubation period at 37° C., the reactions were initiated by addition of betanicotinamide adenine dinucleotide phosphate, reduced form (NADPH, 1 mM), and terminated by transferring an aliquot into acetonitril after different time points. After centrifugation (10000 g, 5 min), an aliquot of the supernatant was assayed by HPLC-MS/MS as described above for the MDCK assay P-gp for the amount of parent compound. The half-life was determined by the slope of the semi-logarithmic plot of the concentration-time profile.

MDR1 (P-gp) = molecular target: T2, MDR1 (P-gp) (Homo sapiens, UniProt P08183); assay: MDCK assay P-gp (permeability across MDCK-MDR1 monolayers); assay type: in vitro ADME; settings: for Papp A→B at 2 h: apical-to-basal, MDCK-MDR1 monolayers, pH 7.4; for efflux ratio at 2 h: pH 7.4, Papp (b-a) divided by Papp (a-b), MDCK-MDR1, read-out: efflux ratio PEBA/PEAB
T2 construct: expressed in transfected cells; host or cells: MDCKII (Madin-Darby canine kidney)
T2 sequence (P08183 whole entry): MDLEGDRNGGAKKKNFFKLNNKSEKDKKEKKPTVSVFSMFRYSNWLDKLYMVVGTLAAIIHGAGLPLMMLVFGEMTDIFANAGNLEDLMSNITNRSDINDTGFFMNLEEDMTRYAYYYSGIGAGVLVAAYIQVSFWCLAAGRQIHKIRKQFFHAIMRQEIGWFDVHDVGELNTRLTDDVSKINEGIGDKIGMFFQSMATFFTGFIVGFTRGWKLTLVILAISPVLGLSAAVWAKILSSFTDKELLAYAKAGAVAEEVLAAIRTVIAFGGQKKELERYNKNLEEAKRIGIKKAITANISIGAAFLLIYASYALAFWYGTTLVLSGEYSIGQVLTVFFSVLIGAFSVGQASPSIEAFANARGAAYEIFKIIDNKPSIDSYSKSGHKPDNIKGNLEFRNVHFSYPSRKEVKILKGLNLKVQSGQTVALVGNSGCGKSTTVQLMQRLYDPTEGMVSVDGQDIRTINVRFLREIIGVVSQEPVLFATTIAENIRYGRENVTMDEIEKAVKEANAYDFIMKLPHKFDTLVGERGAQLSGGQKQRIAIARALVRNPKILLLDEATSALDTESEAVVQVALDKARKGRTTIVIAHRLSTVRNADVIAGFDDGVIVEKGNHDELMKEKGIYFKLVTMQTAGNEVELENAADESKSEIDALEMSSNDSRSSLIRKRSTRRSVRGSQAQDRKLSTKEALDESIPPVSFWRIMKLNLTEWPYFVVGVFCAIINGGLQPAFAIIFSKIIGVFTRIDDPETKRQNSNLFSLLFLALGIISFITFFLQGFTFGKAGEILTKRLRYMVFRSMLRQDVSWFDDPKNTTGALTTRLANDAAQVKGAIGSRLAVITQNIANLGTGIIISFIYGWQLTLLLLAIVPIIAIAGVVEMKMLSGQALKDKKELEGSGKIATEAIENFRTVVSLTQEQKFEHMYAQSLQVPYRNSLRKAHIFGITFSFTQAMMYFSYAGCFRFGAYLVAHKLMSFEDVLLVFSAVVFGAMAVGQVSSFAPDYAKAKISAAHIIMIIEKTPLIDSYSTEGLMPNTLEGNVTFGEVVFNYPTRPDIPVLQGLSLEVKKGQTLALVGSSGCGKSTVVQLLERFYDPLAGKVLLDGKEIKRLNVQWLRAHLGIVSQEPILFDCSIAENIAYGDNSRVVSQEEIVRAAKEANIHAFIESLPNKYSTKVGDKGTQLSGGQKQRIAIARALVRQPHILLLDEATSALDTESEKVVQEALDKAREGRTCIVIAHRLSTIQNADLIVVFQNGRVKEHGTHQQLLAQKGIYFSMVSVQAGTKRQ
Method: The MDCK assays provide information on the potential of a compound to pass the blood brain barrier. Permeability measurements across polarized, confluent MDCK-MDR1 cell monolayers grown on permeable filter supports are used as an in vitro absorption model: apparent permeability coefficients (PE) of the compounds across the MDCK-MDR1 cell monolayers are measured (pH 7.4, 37° C.) in apical-to-basal (AB) and basal-to-apical (BA) transport direction. The AB permeability (PEAB) represents drug absorption from the blood into the brain and the BA permeability (PEBA) drug efflux from the brain back into the blood via both, passive permeability as well as active transport mechanisms mediated by efflux and uptake transporters that are expressed on the MDCK-MDR1 cells, predominantly by the overexpressed human MDR1. Identical or similar permeabilities in both transport directions indicate passive permeation (PEBA/PEAB≤1), vectorial permeability points to additional active transport mechanisms. Higher PEBA than PEAB (PEBA/PEAB>5) indicates the involvement of active efflux mediated by MDR1, which might compromise the goal to achieve sufficient brain exposure. Therefore, this assay provides valuable support for selection of compounds applicable for further in vivo testing. High permeability not limited by efflux at the blood brain barrier is a favorable characteristic for compounds that are to be used for drugs acting primarily in the CNS.
Apparent permeability coefficients (Papp) of the compounds across the MDCK-MDR1 monolayers (MDCKII cells transfected with human MDR1 cDNA expression plasmid) are measured in apical-to-basal (AB) and basal-to-apical (BA) direction. MDCK-MDR1 cells (6×10^5 cells/cm^2) are seeded on filter inserts (Corning, Transwell, polycarbonate, 0.4 μm pore size) and cultured for 9 to 10 days. Compounds dissolved in DMSO stock solution (1-20 mM) are diluted with HTP-4 aqueous buffer (128.13 mM NaCl, 5.36 mM KCl, 1 mM MgSO4, 1.8 mM CaCl2, 4.17 mM NaHCO3, 1.19 mM Na2HPO4, 0.41 mM NaH2PO4, 15 mM HEPES, 20 mM glucose, pH 7.4) supplemented with 0.25% BSA to prepare the transport solutions (final concentration: 1 or 10 μM, final DMSO<=0.5%). The transport solution is applied to the apical or basolateral donor side for measuring A-B or B-A permeability, respectively. The receiver side contains HTP-4 buffer supplemented with 0.25% BSA. Samples are collected at the start and end of experiment from the donor and at various time intervals for up to 2 hours also from the receiver side for concentration measurement by HPLC-MS/MS (RapidFire High-throughput MS System (Agilent) coupled to QTrap 6500 (AB Sciex) or TSQ Vantage (Thermo Scientific)). Sampled receiver volumes are replaced with fresh receiver solution. Efflux ratio is calculated dividing the Papp (b-a) values by the Papp (a-b) values.

NMDA NR1/NR2B receptor [3] = molecular target: T3, NMDA NR1/NR2B receptor (Homo sapiens, UniProt Q13224); assay: In vitro NMDA NR1/NR2B cell assay (FLIPR, intracellular calcium induced by glycine/glutamate); assay type: cell-based; settings: see Table 2
T3 construct: host or cells: HEK293, tetracycline-inducible expression
T3 sequence (Q13224 27-1484, other chains not shown): as the sequence (Q13224 27-1484, other chains not shown) above
Method: as §1, §2, §3, §4, §5

Nav1.6 = Nav1.6 (Homo sapiens, UniProt Q9UQD0); assay: Nav 1.6 inhibition, IonWorks Quattro electrophysiology; assay type: cell-based; settings: for inhibition at 1 µM / inhibition at 5 µM: normalized to vehicle control (0%) and maximal inhibition control (100%)
Method: Determination of Nav 1.6.Inhibition
IonWorks Quattro electrophysiological platform
The compounds were prepared in DMSO at 300× the final assay concentrations of 1 and 5 μM.
The 300×DMSO stock solutions were transferred into assay plates where 2 μl per well of each 300× stock solution were placed. All assay plates were stored at −80° C. until the day of assay.
On the day of the assay, the appropriate assay plate was thawed at room temperature, centrifuged, and 198 μl of external recording solution was added and mixed thoroughly. This provided a 1:100 dilution. A further 1:3 dilution occurred upon addition to the cells in the IonWorks Quattro electrophysiological platform, giving a 1:300 dilution in total. On each assay plate, at least 8 wells were reserved for vehicle control (0.3% DMSO) and at least 8 wells for each positive control specific to the cell line tested. The positive controls were tested at a maximal blocking and an approximate IC50 concentration. As positive control Lidocaine at concentrations of 30 and 1000 μM was used.
The solutions for recording Nav1.6 currents were as follows:
Amphotericin B was used to obtain electrical access to the cell interior at a final concentration of 200 μg/ml in internal recording solution.
State-dependent inhibition: Sodium channels when held at depolarized potential or long test pulse, the channels open and inactivate and then stay inactivated until the membrane potential is stepped back to hyperpolarized potentials, when the inactivated channels recover from inactivation into closed state.
Cells were held at −120 mV. In order to completely inactivate the sodium channels (pulse 1), the cells were pulsed to +0 mV for 2500 ms and stepped back to −120 mV for 10 ms (to completely recover from inactivation, however channels that had drugs bound to them will not recover from inactivation) before stepping to +0 mV for 20 ms (pulse 2).
Both the positive and vehicle control data associated with each cell line assayed are shown below as an example. The mean is shown for each positive and negative control as solid symbol with the total number of individual well replicates given next to the solid symbol. In addition, the individual data of each well are shown on the graph as open symbols so that the variation about the mean value can be readily assessed.
Shown below are the assay controls for the Nav1.6 IonWorks Quattro assay.
Tables 3 and 4 show the normalized percentage inhibition of Nav1.6 channel. […] (see also the figure Assay Control Results above).

| Compound | IC50 (NMDA NR1/NR2B receptor [1]) | half-life at 1 μM [2] | Papp A→B at 2 h (MDR1 (P-gp)) | efflux ratio at 2 h (MDR1 (P-gp)) | activity on the NR1-NR2B ion channel (in words) (NMDA NR1/NR2B receptor [3]) | inhibition at 1 µM (Nav1.6) | inhibition at 5 µM (Nav1.6) | significant inhibition of the Nav 1.6 channel (in words) (Nav1.6; at 1 and 5 μM) |
| --- | --- | --- | --- | --- | --- | --- | --- | --- |
| CNC(=O)[C@@H]1CN(Cc2ccc(Oc3ccc(F)cc3F)cn2)CCO1 [Example 31] | 0.275 µM | > 2.17 h | 63 ×10⁻⁶ cm/s | 0.7 |  |  |  |  |
| CCNC(=O)C1CN(Cc2cccc(Oc3ccccc3)c2)CCO1 (centres unmarked) [Example 100 of WO2015/130905, reference compound] |  |  |  |  | do not show any activity |  |  |  |
| CNC(=O)[C@@H]1CN(Cc2ccc(Oc3ccccc3F)cn2)CCO1 [Example 33] | 0.366 µM | > 2.17 h | 71 ×10⁻⁶ cm/s | 0.5 |  |  |  |  |
| O=C(NCc1ccccn1)C1CN(Cc2cccc(Oc3ccccc3)c2)CCO1 (centres unmarked) [Example 105 of WO2015/130905, reference compound] |  |  |  |  | do not show any activity |  |  |  |
| CNC(=O)C1CN(Cc2ccc(Oc3ccc(F)cc3F)nc2)CCO1 (centres unmarked) [Example 11] |  | > 2.17 h | 72 ×10⁻⁶ cm/s | 0.6 |  | 4.2% | -3.6% |  |
| CNC(=O)[C@@H]1CN(Cc2ccc(Oc3ccc(C)cc3F)cn2)CCO1 [Example 34] | 0.133 µM | > 2.17 h | 58 ×10⁻⁶ cm/s | 0.8 |  |  |  |  |
| CNC(=O)C1CN(Cc2ccc(Oc3ccc(C)cc3F)nc2)CCO1 (centres unmarked) [Example 12] |  | > 2.17 h | 80 ×10⁻⁶ cm/s | 0.7 |  | 5.1% | 10.2% |  |
| CNC(=O)[C@@H]1CN(Cc2ccc(Oc3ccc(Cl)cc3F)cn2)CCO1 [Example 32] | 0.255 µM | > 2.17 h | 80 ×10⁻⁶ cm/s | 0.5 |  |  |  |  |
| COCCNC(=O)C1CN(Cc2cccc(Oc3ccccc3)c2)CCO1 (centres unmarked) [Example 107 of WO2015/130905, reference compound] | > 9.26 µM |  |  |  | do not show any activity | -8.5% | 13.1% | do not show any significant inhibition |
| CNC(=O)C1CN(Cc2ccc(Oc3ccc(Cl)cc3F)nc2)CCO1 (centres unmarked) [Example 15] |  | > 2.17 h | 42 ×10⁻⁶ cm/s | 0.7 |  | -17.4% | -1.4% |  |
